We go through 1 compound from patent US8093286B2, “Methods for treatment with bucindolol based on genetic targeting” (The Regents of the University of Colorado, a body corporate, priority 2004, dated 2012).

Data set [1] has as its system nonfailing human right ventricular trabeculae. Nature of the data set: contractile response of isolated right ventricular trabeculae from nonfailing human hearts. The note with it: with and without forskolin. As for the experimental part: (§1) Nonfailing hearts were obtained from local potential organ donors whose hearts were not transplanted because of physical or ABO blood type incompatibility. Failing hearts were from patients with end-stage heart failure due to ischemic or non-ischemic dilated cardiomyopathies who underwent cardiac transplantation. The demographic characteristics of the hearts are provided in Results. The contractile response of isolated, field stimulated, human trabeculae was assessed as previously described {1755; a-c}. Trabeculae of uniform size (1 to 2×6 to 8 mm) were mounted in 80 ml muscle bath chambers in Tyrode's solution at pH 7.45 bubbled with 95% O2-5% CO2 at 36^0. After equilibration, a tension of 75% of Lmax was applied to each individual trabeculum. Field-stimulation by a 5-ms pulse at 10% above threshold was then applied, and after equilibration full dose-response curves to isoproterenol, bucindolol or xamoterol were performed using the indicated concentrations and application of increasing doses every 5 minutes. In experiments in which forskolin was used to enhance signal transduction {e,f}, 10^−6 M of this adenylyl cyclase activator was applied to the tissue baths 15-20 minutes prior to the performance of dose-response curves, and allowed to achieve stability of tension response. Systolic tension at each dose was calculated as the stimulated tension in mN/mm^2 minus baseline tension. The maximum tension, concentration of isoproterenol that produced 50% of the maximum developed tension (EC50) and curve slope were computed by nonlinear repeated measures analysis of covariance. […] Statistical methods were employed as described in Examples 3 and 4.

For data set [2], the system named is patients with Class III/IV heart failure. The note with it: cited from earlier work.
Another data set deals with T1, β1-Arg389 receptor (Homo sapiens, UniProt P08588, G389R).
T1 construct: expressed in transfected cells
T1 sequence (P08588 whole entry G389R): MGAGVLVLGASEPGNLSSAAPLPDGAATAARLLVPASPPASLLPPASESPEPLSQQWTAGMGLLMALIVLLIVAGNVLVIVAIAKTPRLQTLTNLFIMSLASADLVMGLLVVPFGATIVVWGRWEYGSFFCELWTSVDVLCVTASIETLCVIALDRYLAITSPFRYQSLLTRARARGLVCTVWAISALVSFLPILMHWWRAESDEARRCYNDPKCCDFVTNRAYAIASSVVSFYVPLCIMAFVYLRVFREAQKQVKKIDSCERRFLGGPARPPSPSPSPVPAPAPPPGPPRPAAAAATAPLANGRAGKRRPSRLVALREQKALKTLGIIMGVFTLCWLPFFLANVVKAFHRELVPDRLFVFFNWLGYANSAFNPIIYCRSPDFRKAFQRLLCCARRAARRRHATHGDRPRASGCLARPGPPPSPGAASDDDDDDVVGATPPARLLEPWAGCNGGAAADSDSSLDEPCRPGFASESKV
Description: 125I-cyanopindolol competition binding in transfected cells. To be noted: 125I-CYP competition, n=3; read-out: affinity for bucindolol (pKi) (converted). As for the experimental part:
(§2) Chinese hamster fibroblasts were stably transfected using constructs previously described so as to separately express the human β1-Arg389 or β1-Gly389 receptors. β1AR expression, and affinity for bucindolol, were determined by radioligand binding studies with ^125I-cyanopindolol (125I-CYP), using 1 μM propranolol to define nonspecific binding as described. Whole cell cAMP accumulation studies were carried out by the [^3H]-adenine method using two lines with equivalent expression levels of the two receptors as indicated. Attached cells were exposed to vehicle (basal), 10 μM norepinephrine or 10 uM norepinephrine with the indicated concentrations of bucindolol for 15 min at 37° C.

A further data set concerns the target T2, β1-Gly389 receptor (Homo sapiens, UniProt P08588).
T2 construct: expressed in transfected cells
The data set is described as above. The note with it: 125I-CYP competition, n=3; read-out: affinity for bucindolol (pKi) (converted). As for the experimental part: as §2

The subject of data set [3] is failing human right ventricular trabeculae. Description: contractile response of isolated right ventricular trabeculae from failing human hearts. The note with it: hydrochloride. The procedure: as §1

The structures appear in SMILES notation. “Also recorded” adds a separate entry of the source. Counter-ions that a name gives are not always drawn.

T2 sequence (P08588 whole entry): as the sequence (P08588 whole entry G389R) above, with R389G counted along it

In the case of `CC(C)(Cc1c[nH]c2ccccc12)NCC(O)COc1ccccc1C#N` (stereo not shown) [bucindolol, (2-{2-hydroxy-3{{2-(3-indolyl)-1,1-dimethylethyl}amino}propoxy}-benzonitrile hydrochloride)], the “intrinsic sympathomimetic activity (increase in force)” value in data set [1] was “no evidence of ISA”; in data set [3] (failing hearts, with and without forskolin) it was “no significant increase in force development; also recorded: no evidence of ISA”. Further, the “HF Hospitalization hazard ratio, bucindolol vs placebo” value in data set [2] (BEST entire cohort (n = 2708)) is recorded as 0.78; 1045 Ev. In data set [2] (BEST entire cohort (n = 2708)), the “Mortality + HF Hospitalization hazard ratio, bucindolol vs placebo” value is reported as 0.81; 1421 Ev. Besides, the “reduction in all-cause mortality” value in data set [2] (BEST entire cohort) is given as 10%. For the same compound, the “reduction in mortality or heart failure hospitalization” value in data set [2] (BEST entire cohort) was 19%. Further, the “reduction in event rate (death or heart failure hospitalization)” value in data set [2] (Class III patients, overall) is 22%. Further, in data set [2] (Class IV patients, first 6 months of treatment), the “increase in combined endpoint of death or heart failure hospitalization” value is on record as 1.7 fold. For the same compound, the Ki on β1-Arg389 receptor and at β1-Gly389 receptor was 251 pM each time. The “inotropic effect on systolic force (dose-response curve slope)” value in data set [3] (β1AR Arg/Arg, forskolin pretreatment) was “inverse agonist; also recorded: negative curve slope”; in data set [3] (β1AR Gly carriers, forskolin pretreatment), “neutral antagonist; also recorded: not different from 0”; in data set [3] (β1AR Gly carriers, without forskolin) it was “inverse agonist; also recorded: negative inotropic effect”.
